A word on the IC50: it is the midpoint of a concentration-inhibition curve. Usually GI50 stands for the concentration giving 50% growth inhibition.

In ChEMBL document CHEMBL5241122, “A concise review on marine bromopyrrole alkaloids as anticancer agents” (Bioorg Med Chem Lett, 2023) one finds IC50, GI50 and EC50 data, which are given here for 20 compounds.

Where a SMILES comes first, the peptide text is derived from it. [ ]: non-standard residue; d: D form. The star is where a group is joined. X1 = Cn1c(Br)c(Br)c(Br)c1C(=O)*; NMeL = CN[C@@H](CC(C)C)C(=O)O

The subject of test [1] is MCF7. The test can be described thus: Cytotoxicity against human MCF7 cells by MTT assay. The test is classed as functional, cell-based. (Formazan colour is commonly taken as a measure of viable cells.)
Test [2] deals with WRL68. The test can be described thus: Cytotoxicity against human WRL68 cells by MTT assay. The test is classed as functional, cell-based.
The subject of test [3] is Caco-2. The test can be described thus: Cytotoxicity against human Caco-2 cells by MTT assay. It counts as functional, cell-based.
The subject of test [4] is KB 3-1. The test can be described thus: Cytotoxicity against human KB-3-1 cells assessed as cell growth inhibition. The test is classed as functional, cell-based.
Test [5] in a line: Inhibition of CK1gamma (unknown origin). Details: species or system Homo sapiens.
Test [6] has as its target Cyclin-dependent kinase 5/CDK5 activator 1 (Homo sapiens, UniProt Q00535). The test is described as follows: Inhibition of CDK5/p25 (unknown origin). It counts as protein-complex assay.
Test [7] concerns SW-620. The test is described as follows: Cytotoxicity against human SW620 cells assessed as cell growth inhibition. The test is classed as functional, cell-based.
Test [8] has as its system KB. The test can be described thus: Cytotoxicity against human KB cells. The test is classed as functional, cell-based.
The test system of test [9] is K562. The test can be described thus: Cytotoxicity against human K562 cells. It counts as functional, cell-based.
Test [10] concerns L1210. The test can be described thus: Cytotoxicity against mouse L1210 cells. It counts as functional, cell-based.
Test [11] deals with E3 ubiquitin-protein ligase CBL-B (Homo sapiens, UniProt Q13191). The test is described as follows: Inhibition of Cbl-b (unknown origin) assessed as inhibition of Cbl-b dependent ubiquitination in presence of ATP measured after 13 hrs by fluorescence microplate reader assay.
Sequence of E3 ubiquitin-protein ligase CBL-B (Q13191 whole entry): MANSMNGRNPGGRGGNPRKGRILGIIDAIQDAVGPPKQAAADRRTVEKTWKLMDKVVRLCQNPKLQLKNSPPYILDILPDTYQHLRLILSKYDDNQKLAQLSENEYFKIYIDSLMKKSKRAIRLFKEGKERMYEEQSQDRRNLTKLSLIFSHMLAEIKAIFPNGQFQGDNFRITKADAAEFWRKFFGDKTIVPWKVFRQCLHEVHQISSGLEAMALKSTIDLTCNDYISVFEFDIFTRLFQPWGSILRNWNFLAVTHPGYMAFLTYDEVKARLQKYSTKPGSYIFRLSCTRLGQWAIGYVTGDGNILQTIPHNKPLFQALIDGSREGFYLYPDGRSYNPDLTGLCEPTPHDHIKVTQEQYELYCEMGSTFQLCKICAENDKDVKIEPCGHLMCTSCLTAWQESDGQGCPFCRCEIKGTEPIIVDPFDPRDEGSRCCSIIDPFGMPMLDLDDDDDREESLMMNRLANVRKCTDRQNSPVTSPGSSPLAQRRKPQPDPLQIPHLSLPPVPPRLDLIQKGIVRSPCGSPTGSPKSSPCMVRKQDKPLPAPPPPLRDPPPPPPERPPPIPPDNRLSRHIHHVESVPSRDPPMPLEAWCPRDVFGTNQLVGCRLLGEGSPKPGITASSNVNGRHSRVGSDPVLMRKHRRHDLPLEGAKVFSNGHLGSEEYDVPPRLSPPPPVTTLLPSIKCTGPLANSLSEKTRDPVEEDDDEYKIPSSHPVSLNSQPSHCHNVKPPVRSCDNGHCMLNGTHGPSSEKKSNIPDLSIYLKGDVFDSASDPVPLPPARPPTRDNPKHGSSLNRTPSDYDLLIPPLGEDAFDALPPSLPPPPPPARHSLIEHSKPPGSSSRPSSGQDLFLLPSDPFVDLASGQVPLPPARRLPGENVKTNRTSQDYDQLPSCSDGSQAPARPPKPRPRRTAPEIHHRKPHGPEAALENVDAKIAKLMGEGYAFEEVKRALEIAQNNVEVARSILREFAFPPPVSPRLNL
Test [12] concerns L02. The test is described as follows: Cytotoxicity against human L02 cells by MTT assay. The test is classed as functional, cell-based.
The subject of test [13] is K562. The test is described as follows: Cytotoxicity against human K562 cells by MTT assay. The test is classed as functional, cell-based.
Test [14] concerns the target VIP peptides (Homo sapiens, UniProt P01282). The test can be described thus: Displacement of [125I]-VIP from Vasoactive intestinal peptide (unknown origin) incubated for 120 mins by gamma scintillation counter analysis. (In a radioligand displacement assay an active substance lowers the binding of a labelled ligand.)
The nature of test [15]: Displacement of [125I]-somatostatin from somatostatin (unknown origin) incubated for 60 mins by gamma scintillation counter analysis. The arrangement: species or system Homo sapiens.
In test [16] the test system is HT-29. The test can be described thus: Cytotoxicity against human HT-29 cells assessed as cell growth inhibition by cell based assay. The test is classed as functional.
For test [17], the system named is PSN1. The test is described as follows: Cytotoxicity against human PSN1 cells assessed as cell growth inhibition by cell based assay. It counts as functional.
Test [18] concerns MDA-MB-231. The test can be described thus: Cytotoxicity against human MDA-MB-231 cells assessed as cell growth inhibition by cell based assay. The test is classed as functional.
Test [19] deals with A549. The test is described as follows: Cytotoxicity against human A549 cells assessed as cell growth inhibition by cell based assay. It counts as functional.
Test [20] deals with Receptor tyrosine-protein kinase erbB-2 (Homo sapiens, UniProt P04626). The test can be described thus: Inhibition of c-ErbB-2 (unknown origin).
Sequence of Receptor tyrosine-protein kinase erbB-2 (P04626 whole entry): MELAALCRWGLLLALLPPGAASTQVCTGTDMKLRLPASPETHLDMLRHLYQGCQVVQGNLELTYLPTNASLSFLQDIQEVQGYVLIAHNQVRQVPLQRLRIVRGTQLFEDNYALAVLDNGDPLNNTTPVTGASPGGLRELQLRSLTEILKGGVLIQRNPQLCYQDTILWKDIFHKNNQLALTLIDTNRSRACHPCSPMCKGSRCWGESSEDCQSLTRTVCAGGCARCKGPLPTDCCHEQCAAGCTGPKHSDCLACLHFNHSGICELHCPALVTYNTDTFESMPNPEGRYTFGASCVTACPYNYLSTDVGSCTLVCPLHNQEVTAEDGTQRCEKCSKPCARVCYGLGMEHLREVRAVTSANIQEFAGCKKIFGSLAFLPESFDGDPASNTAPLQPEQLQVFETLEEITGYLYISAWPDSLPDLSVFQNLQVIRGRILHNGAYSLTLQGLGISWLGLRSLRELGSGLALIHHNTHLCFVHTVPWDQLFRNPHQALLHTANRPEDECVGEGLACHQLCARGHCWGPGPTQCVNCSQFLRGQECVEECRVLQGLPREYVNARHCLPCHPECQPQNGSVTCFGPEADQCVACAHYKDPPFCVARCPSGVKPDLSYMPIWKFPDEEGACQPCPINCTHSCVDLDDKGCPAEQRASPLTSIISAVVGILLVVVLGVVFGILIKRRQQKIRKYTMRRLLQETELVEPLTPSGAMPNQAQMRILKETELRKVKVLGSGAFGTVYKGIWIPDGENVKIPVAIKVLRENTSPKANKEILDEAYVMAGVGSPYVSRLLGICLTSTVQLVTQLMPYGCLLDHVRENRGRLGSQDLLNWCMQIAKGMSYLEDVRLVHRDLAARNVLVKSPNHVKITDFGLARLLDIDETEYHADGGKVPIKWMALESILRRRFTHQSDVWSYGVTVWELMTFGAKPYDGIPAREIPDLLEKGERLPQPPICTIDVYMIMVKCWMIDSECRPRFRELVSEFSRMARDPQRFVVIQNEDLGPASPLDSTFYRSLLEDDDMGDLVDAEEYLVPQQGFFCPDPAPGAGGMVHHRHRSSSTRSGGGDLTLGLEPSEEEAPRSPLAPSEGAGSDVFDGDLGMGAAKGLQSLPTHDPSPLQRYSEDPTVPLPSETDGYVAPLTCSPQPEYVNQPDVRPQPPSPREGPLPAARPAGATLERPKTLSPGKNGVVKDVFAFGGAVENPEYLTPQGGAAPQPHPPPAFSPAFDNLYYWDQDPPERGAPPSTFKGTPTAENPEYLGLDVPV
Test [21] deals with Epidermal growth factor receptor (Homo sapiens, UniProt P00533). The test is described as follows: Inhibition of EGFR (unknown origin).
Sequence of Epidermal growth factor receptor (P00533 whole entry): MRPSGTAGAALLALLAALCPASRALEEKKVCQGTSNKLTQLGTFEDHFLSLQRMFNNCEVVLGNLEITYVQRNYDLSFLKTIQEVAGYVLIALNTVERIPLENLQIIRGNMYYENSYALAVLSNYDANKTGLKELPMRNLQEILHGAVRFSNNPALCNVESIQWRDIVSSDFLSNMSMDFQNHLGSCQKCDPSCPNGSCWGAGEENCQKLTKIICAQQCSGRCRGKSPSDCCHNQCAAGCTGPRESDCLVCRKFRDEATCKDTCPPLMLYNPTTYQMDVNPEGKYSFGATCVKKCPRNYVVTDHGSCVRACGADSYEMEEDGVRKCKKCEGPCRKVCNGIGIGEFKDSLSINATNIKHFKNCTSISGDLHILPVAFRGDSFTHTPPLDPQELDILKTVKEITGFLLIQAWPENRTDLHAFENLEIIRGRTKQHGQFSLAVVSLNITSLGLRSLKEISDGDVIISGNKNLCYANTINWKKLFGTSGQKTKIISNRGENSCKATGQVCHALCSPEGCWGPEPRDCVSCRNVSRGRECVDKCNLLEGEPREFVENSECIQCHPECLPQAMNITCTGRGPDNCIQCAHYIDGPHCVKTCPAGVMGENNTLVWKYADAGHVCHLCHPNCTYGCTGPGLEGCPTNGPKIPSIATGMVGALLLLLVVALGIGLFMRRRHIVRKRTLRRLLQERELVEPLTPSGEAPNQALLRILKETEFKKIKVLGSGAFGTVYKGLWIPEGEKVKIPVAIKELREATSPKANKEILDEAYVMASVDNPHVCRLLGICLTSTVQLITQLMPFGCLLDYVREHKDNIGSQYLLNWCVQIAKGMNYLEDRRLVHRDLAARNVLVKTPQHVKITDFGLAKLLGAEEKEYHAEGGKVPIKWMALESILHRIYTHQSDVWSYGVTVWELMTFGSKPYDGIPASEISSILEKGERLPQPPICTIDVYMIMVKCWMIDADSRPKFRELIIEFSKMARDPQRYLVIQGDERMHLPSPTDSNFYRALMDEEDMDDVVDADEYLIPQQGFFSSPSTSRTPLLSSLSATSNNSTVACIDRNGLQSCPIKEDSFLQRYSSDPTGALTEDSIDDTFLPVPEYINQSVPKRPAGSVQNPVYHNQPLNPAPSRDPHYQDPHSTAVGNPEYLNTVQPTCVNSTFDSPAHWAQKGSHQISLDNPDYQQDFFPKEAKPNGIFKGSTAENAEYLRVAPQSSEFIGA
The subject of test [22] is P388. The test can be described thus: Cytotoxicity against mouse P388 cells. It counts as functional, cell-based. The note with it: read-out: ED50 (the source's name).
The test system of test [23] is MONO-MAC-6. The test is described as follows: Cytotoxicity against human MONO-MAC-6 cells incubated for 48 hrs by [3H]-thymidine incorporation based liquid scintillation counter analysis. It counts as functional, cell-based. (Dividing cells build labelled thymidine or BrdU into new DNA.)
The test system of test [24] is PC-9. The test is described as follows: Cytotoxicity against human PC-9 cells incubated for 48 hrs by MTT assay. It counts as functional, cell-based. The note with it: PC-9, 48 h.
Test [25] deals with U-937. The test is described as follows: Cytotoxicity against human U-937 cells incubated for 48 hrs by MTT assay. The test is classed as functional, cell-based. As to conditions: U-937, 48 h.
The test system of test [26] is Jurkat. The test can be described thus: Antiinflammatory activity in PMA induced human Jurkat cells assessed as inhibition of IL-2 production by EIA assay. It counts as functional, cell-based.
Test [27] can be described thus: Inhibition of recombinant human MAPK expressed in Escherichia coli assessed as reduction in MEK-1 phosphorylation incubated for 60 mins by ELISA assay.
Test [28] concerns LoVo. The test can be described thus: Inhibition of cell growth in human LoVo cells by SRB assay. It counts as functional, cell-based.
The subject of test [29] is THP-1. The test is described as follows: Antiinflammatory activity in LPS induced human THP-1 cells assessed as inhibition of TNF-alpha production by EIA assay. The test is classed as functional, cell-based.

Sequence of VIP peptides (P01282 125-152 limits assumed): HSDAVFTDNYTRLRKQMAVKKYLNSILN
Sequence of Cyclin-dependent kinase 5/CDK5 activator 1 (Q00535 whole entry): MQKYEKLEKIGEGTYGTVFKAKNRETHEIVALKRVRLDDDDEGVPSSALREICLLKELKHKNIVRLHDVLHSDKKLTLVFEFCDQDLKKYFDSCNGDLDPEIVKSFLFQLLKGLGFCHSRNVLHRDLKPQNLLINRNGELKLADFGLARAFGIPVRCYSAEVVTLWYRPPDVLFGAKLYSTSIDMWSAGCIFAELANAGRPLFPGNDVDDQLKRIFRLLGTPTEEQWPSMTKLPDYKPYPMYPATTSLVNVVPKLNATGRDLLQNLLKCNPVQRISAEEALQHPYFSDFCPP
Sequence of Cyclin-dependent kinase 5/CDK5 activator 1 (Q15078 whole entry, further chain): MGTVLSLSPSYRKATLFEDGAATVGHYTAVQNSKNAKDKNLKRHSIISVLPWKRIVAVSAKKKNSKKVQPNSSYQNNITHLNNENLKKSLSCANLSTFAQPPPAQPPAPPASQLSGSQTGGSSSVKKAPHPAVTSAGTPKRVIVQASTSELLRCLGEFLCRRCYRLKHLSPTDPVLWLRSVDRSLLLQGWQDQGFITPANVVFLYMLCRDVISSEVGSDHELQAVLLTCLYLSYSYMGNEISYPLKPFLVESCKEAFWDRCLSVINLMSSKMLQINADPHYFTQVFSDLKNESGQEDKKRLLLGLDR

Take `Cn1c(C(=O)NNC(=S)Nc2ccccc2F)cc(Br)c1Br`: the concentration for half-maximal inhibition (IC50) in test [1], in test [2] and in test [3] was 0.01 µM throughout.

As for `N=C1NC(=O)C(=C2CCNC(=O)c3[nH]c(Br)cc32)N1`, the IC50 was 2 µM in [4], 0.03 µM in test [5], 0.16 µM in test [6] and 3.1 µM in [7].

Regarding `N=C1N=C(NCCS(=O)(=O)O)C(O)(/C=C/CNC(=O)c2cc(Br)c(Br)[nH]2)N1` (stereo not given), the IC50 in test [8] and in test [9] was 20.7 µM each time.

For the compound `NC1NC2c3c([nH]c(Br)c3Br)C(=O)N3C[C@H](Cl)[C@H](O)C23N1` (stereo not given in full), the midpoint of inhibition in [10], the IC50, lay at 5.68 µM.

Turning to `Cn1cc(Br)cc1C(=O)NC[C@H]1CC2N=C(N)NC2[C@@H](c2c[nH]c(N)n2)[C@@H]1CNC(=O)c1cc(Br)c(Br)[nH]1` (stereo not given in full), the IC50 in test [11] came out at 18 µM.

`Cn1cccc1C(=O)NC[C@H]1CC2N=C(N)NC2[C@@H](c2c[nH]c(N)n2)[C@@H]1CNC(=O)c1cc(Br)c(Br)n1C` (stereo not given in full): in test [11], the IC50 turned out to be 18 µM.

In the case of `O=C1NC(=O)/C(=C/CCNC(=O)c2[nH]cc(Br)c2Br)N1`, the results for the IC50 in test [12] and in test [13] were 12.3 µM and 6.1 µM, respectively.

For the compound `NC1=NC2C[C@H](CNC(=O)c3cc(Br)c[nH]3)[C@@H](CNC(=O)c3cc(Br)c[nH]3)[C@H](c3nc(N)c[nH]3)C2N1` (stereo not given in full), the IC50 amounted to 19.2 µM in test [14] and 2.2 µM in test [15].

Turning to `COc1cc(NC(=S)NNC(=O)c2cc(Br)c(Br)n2C)cc(OC)c1OC`, the IC50 in test [1], in [2] and in test [3] was 0.03 µM in each case.

On to `Cn1c(C(=O)NC[C@H]2CC3N=C(N)NC3[C@@H](c3c[nH]c(N)n3)[C@@H]2CNC(=O)c2cc(Br)c[nH]2)cc(Br)c1Br` (stereo not given in full), for which, in test [11], the 50% inhibitory concentration (IC50) was 18 µM.

`Cn1cc(Br)cc1C(=O)NC[C@@H]1[C@@H](CNC(=O)c2ccc(Br)[nH]2)CC2N=C(N)NC2[C@H]1c1c[nH]c(N)n1` (stereo not given in full): in test [11], the concentration for half-maximal inhibition (IC50) was 18 µM.

On to `CC[C@H](C)[C@H](NC(=O)c1c(Br)c(Br)c(Br)n1C)C(=O)N(C)[C@@H](CC(C)C)C(=O)N1CCC[C@H]1C(=O)N[C@@H](CCC(N)=O)C(=O)O` (X1-I[NMeL]PQ-OH), for which the GI50 in [16], in [17], in [18] and in [19] was above 12 µM each time.

As to `N=C1N=C(NCCS(=O)(=O)O)/C(=C/C(O)CNC(=O)c2cc(Br)c[nH]2)N1` (mixture of isomers), the IC50 in test [20] was 37.9 µM.

Take `N=C1N=C(NCCS(=O)(=O)O)/C(=C/C(O)CNC(=O)c2cc(Br)c(Br)[nH]2)N1` (mixture of isomers) [TAUROACIDIN A]: the values for the IC50 in test [21] and in test [20] were 44.6 µM and 37.9 µM, respectively.

In the case of `COC(=O)CC1CNC(=O)c2cc(Br)c(Br)n21` (racemic), the EC50 in test [22] amounted to 82 µM.

In turn, `NC1=N/C(=C2/CCNC(=O)c3[nH]ccc32)C(=O)N1` [DEBROMOHYMENIALDISINE] displayed a half-inhibitory concentration (IC50) in [23] of 9.67 µM.

Consider `COc1cccc2c1C(=O)c1c(O)c3c(c(O)c1C2=O)C[C@@](O)(C(=O)CO)C[C@@H]3O[C@H]1C[C@H](N)[C@H](O)[C@H](C)O1` [DOXORUBICIN], for which the IC50 in [24] was determined as 0.22 µM; in [25], 0.05 µM.

On to `NC1=NC(=O)/C(=C2\CCNC(=O)c3[nH]c(Br)cc32)N1` [HYMENIALDISINE], for which the IC50 stood at 4 µM in [26], 0.006 µM in test [27], 0.61 µM in test [23] and 0.006 µM in test [28].

Consider `S=C(S)N1CCCC1` [PYRROLIDINE DITHIOCARBAMATE], for which the values for the half-inhibitory concentration (IC50) in [29] and in test [26] were 6.11 µM and 5.12 µM, respectively.

Regarding `Nc1nc([C@H]2[C@H](CNC(=O)c3cc(Br)c[nH]3)[C@@H](CNC(=O)c3cc(Br)c[nH]3)[C@@H]2c2c[nH]c(N)n2)c[nH]1` [SCEPTRIN], the IC50 in [14] was 19.8 µM; in [15], 0.27 µM.
